# Experimental data: patent US5112809A, “CRF analogs” (The Salk Institute for Biological Studies, priority 1990, dated 1992)
# Tested on: cultured rat pituitary cells
# Assay: secretion of ACTH and β-endorphin by cultured rat pituitary cells in vitro
# Assay type: cell-based
# Details: read-out: concentration at which half-maximal responses are observed (stimulation of secretion of ACTH and β-endorphin)
# Method: The synthetic peptides from Example I and synthetic oCRF are examined for their effects on the secretion of ACTH and β-endorphin in vitro and also in vivo. The potency of synthetic oCRF to stimulate the secretion of ACTH and β-endorphin by cultured rat pituitary cells is measured using the procedure as generally set forth in Endocrinology, 91, 562 (1972). Half-maximal responses are observed at concentrations of the two peptides which are less than the synthetic oCRF concentration of about 250 picomolar which is needed to achieve such a response. In vivo testing using the general procedure set forth in C.
substance,measurement,value
"oCRF: ovine corticotropin releasing factor, 41-residue peptide, formula disclosed in U.S. Pat. No. 4,415,558",EC50,~0.25 nM
